This passage reports IC50 results from ChEMBL document CHEMBL1140819, “Protected aminooxyprolines for expedited library synthesis: application to Tsg101-directed proline-oxime containing peptides” (Bioorg Med Chem Lett, 2008).

*1 amine or outer side, *2 acyl side, *3 side chain or, on linkers, in order; H or OH if unused. Where a SMILES comes first, the peptide text is derived from it. [ ]: non-standard residue; d: D form. The star is where a group is joined. ξ: configuration not given here. Fluorescein(5-NHCS) = O=C1OC2(c3ccc(O)cc3Oc3cc(O)ccc32)c2cc(NC(=S)*)ccc21; X48 = O=C([C@@H]1C[C@@H](O/N=C\c2c(F)c(F)c(F)c(F)c2F)CN1[*:1])[*:2]; X7 = O=C([C@@H]1[C@@H](O/N=C\c2c(F)c(F)c(F)c(F)c2F)CCN1[*:1])[*:2]; X9 = O=C([C@@H]1C[C@H](O/N=C\c2ccc([N+](=O)[O-])cc2)CN1[*:1])[*:2]; X17 = COc1ccc(/C=N\O[C@@H]2C[C@@H](C(=O)[*:2])N([*:1])C2)cc1O; X21 = O=C([C@@H]1[C@@H](O/N=C\c2cnc3ccccc3c2)CCN1[*:1])[*:2]; X37 = O=C([C@@H]1C[C@@H](O/N=C\c2ccc(CO)o2)CN1[*:1])[*:2]; X41 = CCCCC/C=N\O[C@@H]1C[C@@H](C(=O)[*:2])N([*:1])C1; X2 = CCCCC/C=N\O[C@H]1C[C@@H](C(=O)[*:2])N([*:1])C1; X3 = CCCCC/C=N\O[C@H]1CCN([*:1])[C@@H]1C(=O)[*:2]; ξPip = O=C(O)C1CCCCN1; Ava = NCCCCC(=O)O

This assay concerns the target T1, Tumor susceptibility gene 101 protein (Homo sapiens, UniProt Q99816).
T1 sequence (Q99816 whole entry): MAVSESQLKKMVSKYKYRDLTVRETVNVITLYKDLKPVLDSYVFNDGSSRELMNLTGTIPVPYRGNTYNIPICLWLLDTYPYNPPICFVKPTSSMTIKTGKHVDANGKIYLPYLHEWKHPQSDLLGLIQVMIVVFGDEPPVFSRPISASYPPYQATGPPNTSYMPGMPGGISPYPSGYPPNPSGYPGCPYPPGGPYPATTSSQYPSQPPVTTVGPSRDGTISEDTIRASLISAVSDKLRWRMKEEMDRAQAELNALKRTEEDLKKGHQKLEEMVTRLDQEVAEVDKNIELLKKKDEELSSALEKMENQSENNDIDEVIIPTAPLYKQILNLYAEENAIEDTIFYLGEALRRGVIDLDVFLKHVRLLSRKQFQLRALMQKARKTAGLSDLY
The assay can be described thus: Binding affinity to Tsg101.
As a reminder, the IC50 is the concentration needed to halve the response being measured. Lower therefore signals higher potency. For `CCCCC/C=N\O[C@@H]1C[C@@H](C(=O)N[C@@H](CCC(=O)O)C(=O)N[C@@H](CCC(=O)O)C(N)=O)N(C(=O)C2CCCCN2C(=O)[C@H](C)NC(=O)[C@@H](NC(=O)[C@@H]2CCCN2C(=O)[C@H](CCC(=O)O)NC(=O)[C@@H]2CCCN2C(=O)CCCCNC(=S)Nc2ccc3c(c2)C2(OC3=O)c3ccc(O)cc3Oc3cc(O)ccc32)[C@@H](C)O)C1` (some centres undefined) ({Fluorescein(5-NHCS)-Ava}-PEPTA[ξPip][X41]EE-NH2), the IC50 turned out to be 41 µM.
For `C[C@H](NC(=O)[C@@H](NC(=O)[C@@H]1CCCN1C(=O)[C@H](CCC(=O)O)NC(=O)[C@@H]1CCCN1C(=O)CCCCNC(=S)Nc1ccc2c(c1)C1(OC2=O)c2ccc(O)cc2Oc2cc(O)ccc21)[C@@H](C)O)C(=O)N1CCCCC1C(=O)N1C[C@H](O/N=C\c2c(F)c(F)c(F)c(F)c2F)C[C@H]1C(=O)N[C@@H](CCC(=O)O)C(=O)N[C@@H](CCC(=O)O)C(N)=O` (some centres undefined) ({Fluorescein(5-NHCS)-Ava}-PEPTA[ξPip][X48]EE-NH2) the value was 32 µM; for `COc1ccc(/C=N\O[C@@H]2C[C@@H](C(=O)N[C@@H](CCC(=O)O)C(=O)N[C@@H](CCC(=O)O)C(N)=O)N(C(=O)C3CCCCN3C(=O)[C@H](C)NC(=O)[C@@H](NC(=O)[C@@H]3CCCN3C(=O)[C@H](CCC(=O)O)NC(=O)[C@@H]3CCCN3C(=O)CCCCNC(=S)Nc3ccc4c(c3)C3(OC4=O)c4ccc(O)cc4Oc4cc(O)ccc43)[C@@H](C)O)C2)cc1O` (some centres undefined) ({Fluorescein(5-NHCS)-Ava}-PEPTA[ξPip][X17]EE-NH2), 23 µM.
The value for `C[C@H](NC(=O)[C@@H](NC(=O)[C@@H]1CCCN1C(=O)[C@H](CCC(=O)O)NC(=O)[C@@H]1CCCN1C(=O)CCCCNC(=S)Nc1ccc2c(c1)C1(OC2=O)c2ccc(O)cc2Oc2cc(O)ccc21)[C@@H](C)O)C(=O)N1CCCCC1C(=O)N1C[C@@H](O/N=C\c2ccc([N+](=O)[O-])cc2)C[C@H]1C(=O)N[C@@H](CCC(=O)O)C(=O)N[C@@H](CCC(=O)O)C(N)=O` (some centres undefined) ({Fluorescein(5-NHCS)-Ava}-PEPTA[ξPip][X9]EE-NH2) was 91 µM.
For `C[C@H](NC(=O)[C@@H](NC(=O)[C@@H]1CCCN1C(=O)[C@H](CCC(=O)O)NC(=O)[C@@H]1CCCN1C(=O)CCCCNC(=S)Nc1ccc2c(c1)C1(OC2=O)c2ccc(O)cc2Oc2cc(O)ccc21)[C@@H](C)O)C(=O)N1CCCCC1C(=O)N1CC[C@H](O/N=C\c2cnc3ccccc3c2)[C@H]1C(=O)N[C@@H](CCC(=O)O)C(=O)N[C@@H](CCC(=O)O)C(N)=O` (some centres undefined) ({Fluorescein(5-NHCS)-Ava}-PEPTA[ξPip][X21]EE-NH2) the value was 19 µM; for `CCCCC/C=N\O[C@H]1CCN(C(=O)C2CCCCN2C(=O)[C@H](C)NC(=O)[C@@H](NC(=O)[C@@H]2CCCN2C(=O)[C@H](CCC(=O)O)NC(=O)[C@@H]2CCCN2C(=O)CCCCNC(=S)Nc2ccc3c(c2)C2(OC3=O)c3ccc(O)cc3Oc3cc(O)ccc32)[C@@H](C)O)[C@@H]1C(=O)N[C@@H](CCC(=O)O)C(=O)N[C@@H](CCC(=O)O)C(N)=O` (some centres undefined) ({Fluorescein(5-NHCS)-Ava}-PEPTA[ξPip][X3]EE-NH2), 23 µM; for `C[C@H](NC(=O)[C@@H](NC(=O)[C@@H]1CCCN1C(=O)[C@H](CCC(=O)O)NC(=O)[C@@H]1CCCN1C(=O)CCCCNC(=S)Nc1ccc2c(c1)C1(OC2=O)c2ccc(O)cc2Oc2cc(O)ccc21)[C@@H](C)O)C(=O)N1CCCCC1C(=O)N1CC[C@H](O/N=C\c2c(F)c(F)c(F)c(F)c2F)[C@H]1C(=O)N[C@@H](CCC(=O)O)C(=O)N[C@@H](CCC(=O)O)C(N)=O` (some centres undefined) ({Fluorescein(5-NHCS)-Ava}-PEPTA[ξPip][X7]EE-NH2), 19 µM.
`CCCCC/C=N\O[C@H]1C[C@@H](C(=O)N[C@@H](CCC(=O)O)C(=O)N[C@@H](CCC(=O)O)C(N)=O)N(C(=O)C2CCCCN2C(=O)[C@H](C)NC(=O)[C@@H](NC(=O)[C@@H]2CCCN2C(=O)[C@H](CCC(=O)O)NC(=O)[C@@H]2CCCN2C(=O)CCCCNC(=S)Nc2ccc3c(c2)C2(OC3=O)c3ccc(O)cc3Oc3cc(O)ccc32)[C@@H](C)O)C1` (some centres undefined) ({Fluorescein(5-NHCS)-Ava}-PEPTA[ξPip][X2]EE-NH2) returned a 50% inhibitory concentration (IC50) of 42 µM.
For `C[C@H](NC(=O)[C@@H](NC(=O)[C@@H]1CCCN1C(=O)[C@H](CCC(=O)O)NC(=O)[C@@H]1CCCN1C(=O)CCCCNC(=S)Nc1ccc2c(c1)C1(OC2=O)c2ccc(O)cc2Oc2cc(O)ccc21)[C@@H](C)O)C(=O)N1CCCCC1C(=O)N1C[C@H](O/N=C\c2ccc(CO)o2)C[C@H]1C(=O)N[C@@H](CCC(=O)O)C(=O)N[C@@H](CCC(=O)O)C(N)=O` (some centres undefined) ({Fluorescein(5-NHCS)-Ava}-PEPTA[ξPip][X37]EE-NH2) the value was 26 µM.
